29 molecules from patent US10577363B2, “Substituted piperidine compounds” (EPIZYME, INC., priority 2014, dated 2020) can be followed below.

SMILES strings stand for the structures. pIC50: −log10 of the molar value. Bounds are passed on as bounds.

For one test, the target named is SMYD3 (Homo sapiens (Human), UniProt Q9H7B4). In words: SMYD3 biochemical assay (SPA, 3H-SAM methylation of MEKK2 protein substrate). As to conditions: Table 1A; IC50 values are an average of n = 1 to n = 50; read-out: SMYD3 Biochem IC50. A digest of the protocol: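 Enzyme: untagged full-length human SMYD3 from E. coli; substrate GST-tagged MEKK2 from insect cells. Buffer 25 mM Tris-Cl pH 8.0, 1 mM TCEP, 0.005% BSG/Tween 20. 30 min compound–enzyme preincubation at RT; 3H-SAM/MEKK2 start; stop with cold SAM (100 uM final); SPA readout in cpm.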
What is called pIC50 is −log10 of the IC50, conventionally taken in molar units. On to `O=C(N[C@H]1C[C@H]2CC[C@@H](C1)N2S(=O)(=O)c1cc2oc(=O)[nH]c2cc1Cl)c1cc(C2CC2)on1` [compound 492, N-((1R,3r,5S)-8-((5-chloro-2-oxo-2,3-dihydrobenzo[d]oxazol-6-yl)sulfonyl)-8-azabicyclo[3.2.1]octan-3-yl)-5-cyclopropylisoxazole-3-carboxamide], for which the pIC50 was below 5.00.

As to `C[C@@H]1C[C@@H](NC(=O)c2cc(C3CC3)on2)CCN1S(=O)(=O)c1ccc(N(C)CCN)nc1` [compound 508, N-((2R,4S)-1-((6-((2-aminoethyl)(methyl)amino)pyridin-3-yl)sulfonyl)-2-methylpiperidin-4-yl)-5-cyclopropylisoxazole-3-carboxamide], the pIC50 is 6.50.

For `C[C@H]1C[C@@H](NC(=O)c2cc(C3CC3)on2)CCN1S(=O)(=O)c1ccc(NCCN)nc1` [compound 509, N-((2S,4S)-1-((6-((2-aminoethyl)amino)pyridin-3-yl)sulfonyl)-2-methylpiperidin-4-yl)-5-cyclopropylisoxazole-3-carboxamide], the pIC50 is 8.23.

For `CC(C)CN(C)c1cc(S(=O)(=O)N2CC[C@H](NC(=O)c3cc(C4CC4)on3)C[C@@H]2C)ccn1` [compound 510, 5-cyclopropyl-N-((2S,4S)-1-((2-(isobutyl(methyl)amino)pyridin-4-yl)sulfonyl)-2-methylpiperidin-4-yl)isoxazole-3-carboxamide], the pIC50 is below 5.00.

As for `CC(C)CN(C)c1cc(S(=O)(=O)N2CC[C@@H](NC(=O)c3cc(C4CC4)on3)C[C@@H]2C)ccn1` [compound 511, 5-cyclopropyl-N-((2S,4R)-1-((2-(isobutyl(methyl)amino)pyridin-4-yl)sulfonyl)-2-methylpiperidin-4-yl)isoxazole-3-carboxamide], the pIC50 is below 5.00.

In the case of `C[C@@H]1C[C@@H](NC(=O)c2cc(C3CC3)on2)CCN1S(=O)(=O)c1ccnc(N(C)CCN)c1` [compound 512, N-((2R,4S)-1-((2-((2-aminoethyl)(methyl)amino)pyridin-4-yl)sulfonyl)-2-methylpiperidin-4-yl)-5-cyclopropylisoxazole-3-carboxamide], the pIC50 was 6.31.

As for `C[C@H]1C[C@@H](NC(=O)c2cc(C3CC3)on2)CCN1S(=O)(=O)c1ccc(C#N)nc1` [compound 513, N-((2S,4S)-1-((6-cyanopyridin-3-yl)sulfonyl)-2-methylpiperidin-4-yl)-5-cyclopropylisoxazole-3-carboxamide], the pIC50 is 5.96.

Regarding `CCN(CC)S(=O)(=O)N1CC[C@H](NC(=O)c2cc(C3CC3)on2)C[C@@H]1C` [compound 518, 5-cyclopropyl-N-((2S,4S)-1-(N,N-diethylsulfamoyl)-2-methylpiperidin-4-yl)isoxazole-3-carboxamide], the pIC50 was 5.43.

Take `C[C@H]1C[C@@H](NC(=O)c2cc(C3CC3)on2)CCN1S(=O)(=O)c1cccc(C(F)(F)F)n1` [compound 519, 5-cyclopropyl-N-((2S,4S)-2-methyl-1-((6-(trifluoromethyl)pyridin-2-yl)sulfonyl)piperidin-4-yl)isoxazole-3-carboxamide]: the pIC50 was 6.69.

For `C[C@H]1C[C@@H](NC(=O)c2cc(C3CC3)on2)CCN1S(=O)(=O)c1cccc(NCCCN)n1` [compound 520, N-((2S,4S)-1-((6-((3-aminopropyl)amino)pyridin-2-yl)sulfonyl)-2-methylpiperidin-4-yl)-5-cyclopropylisoxazole-3-carboxamide], the pIC50 was 7.30.

`C[C@H]1C[C@@H](NC(=O)c2cc(C3CC3)on2)CCN1S(=O)(=O)c1cccc(N(C)CCN2CCOCC2)n1` [compound 521, 5-cyclopropyl-N-((2S,4S)-2-methyl-1-((6-(methyl(2-morpholinoethyl)amino)pyridin-2-yl)sulfonyl)piperidin-4-yl)isoxazole-3-carboxamide]: the pIC50 was 5.35.

As for `C[C@H]1C[C@@H](NC(=O)c2cc(C3CC3)on2)CCN1S(=O)(=O)c1ccc(N)nc1` [compound 522, N-((2S,4S)-1-((6-aminopyridin-3-yl)sulfonyl)-2-methylpiperidin-4-yl)-5-cyclopropylisoxazole-3-carboxamide], the pIC50 is 6.39.

On to `C[C@H]1C[C@@H](NC(=O)c2cc(C3CC3)on2)CCN1S(=O)(=O)c1cccnc1N` [compound 523, N-((2S,4S)-1-((2-aminopyridin-3-yl)sulfonyl)-2-methylpiperidin-4-yl)-5-cyclopropylisoxazole-3-carboxamide], for which the pIC50 was 5.97.

The same test, now with this note: Table 2A; read-out: SMYD3 Biochem IC50.
`CNCCCCS(=O)(=O)N1CC[C@H](NC(=O)c2cc(C3CC3)on2)C[C@@H]1C` [compound 561, 5-cyclopropyl-N-((2S,4S)-2-methyl-1-((4-(methylamino)butyl)sulfonyl)piperidin-4-yl)isoxazole-3-carboxamide]: the pIC50 was 8.29.

Staying with this test, now noted: read-out: SMYD3 Biochem IC50.
Regarding `CC(C)CN(C)c1ccc(S(=O)(=O)N2C3CCCC2CC(NC(=O)c2cc(C4CC4)on2)C3)cn1` (centres unmarked) [compound 514, 5-cyclopropyl-N-(9-((6-(isobutyl(methyl)amino)pyridin-3-yl)sulfonyl)-9-azabicyclo[3.3.1]nonan-3-yl)isoxazole-3-carboxamide], the pIC50 is below 5.00.

Regarding `NCCNc1ccc(S(=O)(=O)N2C3CCCC2CC(NC(=O)c2cc(C4CC4)on2)C3)cn1` (centres unmarked) [compound 515, N-(9-((6-((2-aminoethyl)amino)pyridin-3-yl)sulfonyl)-9-azabicyclo[3.3.1]nonan-3-yl)-5-cyclopropylisoxazole-3-carboxamide], the pIC50 was 7.75.

Consider `NCCCNc1ccc(S(=O)(=O)N2C3CCCC2CC(NC(=O)c2cc(C4CC4)on2)C3)cn1` (centres unmarked) [compound 516, N-(9-((6-((3-aminopropyl)amino)pyridin-3-yl)sulfonyl)-9-azabicyclo[3.3.1]nonan-3-yl)-5-cyclopropylisoxazole-3-carboxamide], for which the pIC50 was 7.13.

In the case of `CN(CCCN)c1ccc(S(=O)(=O)N2C3CCCC2CC(NC(=O)c2cc(C4CC4)on2)C3)cn1` (centres unmarked) [compound 517, N-(9-((6-((3-aminopropyl)(methyl)amino)pyridin-3-yl)sulfonyl)-9-azabicyclo[3.3.1]nonan-3-yl)-5-cyclopropylisoxazole-3-carboxamide], the negative-log IC50 (pIC50) is 7.10.

Regarding `CNc1ncccc1S(=O)(=O)N1C2CCCC1CC(NC(=O)c1cc(C3CC3)on1)C2` (centres unmarked) [compound 524, 5-cyclopropyl-N-(9-((2-(methylamino)pyridin-3-yl)sulfonyl)-9-azabicyclo[3.3.1]nonan-3-yl)isoxazole-3-carboxamide], the pIC50 was 5.73.

Still in this test, the particulars now being: read-out: SMYD3 Biochem IC50 (μM)*.
As usually defined, the IC50 is the point on the concentration scale where inhibition reaches its midpoint. Consider `C[C@H]1C[C@@H](NC(=O)c2cc(C3CC3)on2)CCN1S(=O)(=O)c1ccc(Cl)cn1` [compound 466, N-((2S,4S)-1-((5-chloropyridin-2-yl)sulfonyl)-2-methylpiperidin-4-yl)-5-cyclopropylisoxazole-3-carboxamide], for which the IC50 is 0.121 µM.

`COC(=O)C1CN(C(=O)[C@H]2CC[C@H](N)CC2)CC(C)C1NC(=O)c1cc(C2CC2)on1` (some centres unmarked) [compound 468, methyl 1-((1r,4r)-4-aminocyclohexane-1-carbonyl)-4-(5-cyclopropylisoxazole-3-carboxamido)-5-methylpiperidine-3-carboxylate]: the IC50 turned out to be 1.22 µM.

With `N[C@H]1CC[C@H](C(=O)N2CCC(NC(=O)c3cc(C4CC4)on3)C(c3ccccc3)C2)CC1` (some centres unmarked) [compound 469, N-(1-((1r,4r)-4-aminocyclohexane-1-carbonyl)-3-phenylpiperidin-4-yl)-5-cyclopropylisoxazole-3-carboxamide], the IC50 came to 6.28 µM.

Consider `NCCCS(=O)(=O)N1CCC(NC(=O)c2cc(C3CC3)on2)C(c2ccccc2)C1` (centres unmarked) [compound 470, N-(1-((3-aminopropyl)sulfonyl)-3-phenylpiperidin-4-yl)-5-cyclopropylisoxazole-3-carboxamide], for which the IC50 was found to be 2.76 µM.

Regarding `COC(=O)C1CN(C(=O)CCCN)CC(C)C1NC(=O)c1cc(C2CC2)on1` (centres unmarked) [compound 471, methyl 1-(4-aminobutanoyl)-4-(5-cyclopropylisoxazole-3-carboxamido)-5-methylpiperidine-3-carboxylate], the IC50 came to 5.76 µM.

In the case of `CC(C)CN(C)c1ncccc1S(=O)(=O)N1C2CCCC1CC(NC(=O)c1cc(C3CC3)on1)C2` (centres unmarked) [compound 472, 5-cyclopropyl-N-(9-((2-(isobutyl(methyl)amino)pyridin-3-yl)sulfonyl)-9-azabicyclo[3.3.1]nonan-3-yl)isoxazole-3-carboxamide], the IC50 was above 10 µM.

In the case of `CC(C)CNc1ncccc1S(=O)(=O)N1C2CCCC1CC(NC(=O)c1cc(C3CC3)on1)C2` (centres unmarked) [compound 473, 5-cyclopropyl-N-(9-((2-(isobutylamino)pyridin-3-yl)sulfonyl)-9-azabicyclo[3.3.1]nonan-3-yl)isoxazole-3-carboxamide], the IC50 is 5.97 µM.

For the molecule `CC(C)CNc1ncccc1S(=O)(=O)N1CC[C@H](NC(=O)c2cc(C3CC3)on2)C[C@@H]1C` [compound 474, 5-cyclopropyl-N-((2S,4S)-1-((2-(isobutylamino)pyridin-3-yl)sulfonyl)-2-methylpiperidin-4-yl)isoxazole-3-carboxamide], the concentration for half-maximal inhibition (IC50) was found to be 2.74 µM.

On to `NCCNc1ncccc1S(=O)(=O)N1C2CCCC1CC(NC(=O)c1cc(C3CC3)on1)C2` (centres unmarked) [compound 476, N-(9-((2-((2-aminoethyl)amino)pyridin-3-yl)sulfonyl)-9-azabicyclo[3.3.1]nonan-3-yl)-5-cyclopropylisoxazole-3-carboxamide], for which the IC50 was 1.31 µM.

As for `N[C@H]1CC[C@@H](C(=O)N2[C@@H]3CC[C@H]2C[C@H](NC(=O)c2cc(C4CC4)on2)C3)CC1` [compound 486, N-((1R,3S,5S)-8-((1s,4S)-4-aminocyclohexane-1-carbonyl)-8-azabicyclo[3.2.1]octan-3-yl)-5-cyclopropylisoxazole-3-carboxamide], the IC50 is above 10 µM.
